Results on 30 compounds are retold here after patent US8741899B2, “(4-chloro-2-fluoro-N-(2-fluorophenyl)-5-[(8aR)-hexahydropyrrolo-[1,2-a]pyrazin-2(1H)-ylcarbonyl]-benzenesulfonamide, and pharmaceutically acceptable salts thereof” (AbbVie Inc., priority 2009, dated 2014).

Where only a bound is given, the exact number is not on record here.

T1 sequence (O95180 whole entry): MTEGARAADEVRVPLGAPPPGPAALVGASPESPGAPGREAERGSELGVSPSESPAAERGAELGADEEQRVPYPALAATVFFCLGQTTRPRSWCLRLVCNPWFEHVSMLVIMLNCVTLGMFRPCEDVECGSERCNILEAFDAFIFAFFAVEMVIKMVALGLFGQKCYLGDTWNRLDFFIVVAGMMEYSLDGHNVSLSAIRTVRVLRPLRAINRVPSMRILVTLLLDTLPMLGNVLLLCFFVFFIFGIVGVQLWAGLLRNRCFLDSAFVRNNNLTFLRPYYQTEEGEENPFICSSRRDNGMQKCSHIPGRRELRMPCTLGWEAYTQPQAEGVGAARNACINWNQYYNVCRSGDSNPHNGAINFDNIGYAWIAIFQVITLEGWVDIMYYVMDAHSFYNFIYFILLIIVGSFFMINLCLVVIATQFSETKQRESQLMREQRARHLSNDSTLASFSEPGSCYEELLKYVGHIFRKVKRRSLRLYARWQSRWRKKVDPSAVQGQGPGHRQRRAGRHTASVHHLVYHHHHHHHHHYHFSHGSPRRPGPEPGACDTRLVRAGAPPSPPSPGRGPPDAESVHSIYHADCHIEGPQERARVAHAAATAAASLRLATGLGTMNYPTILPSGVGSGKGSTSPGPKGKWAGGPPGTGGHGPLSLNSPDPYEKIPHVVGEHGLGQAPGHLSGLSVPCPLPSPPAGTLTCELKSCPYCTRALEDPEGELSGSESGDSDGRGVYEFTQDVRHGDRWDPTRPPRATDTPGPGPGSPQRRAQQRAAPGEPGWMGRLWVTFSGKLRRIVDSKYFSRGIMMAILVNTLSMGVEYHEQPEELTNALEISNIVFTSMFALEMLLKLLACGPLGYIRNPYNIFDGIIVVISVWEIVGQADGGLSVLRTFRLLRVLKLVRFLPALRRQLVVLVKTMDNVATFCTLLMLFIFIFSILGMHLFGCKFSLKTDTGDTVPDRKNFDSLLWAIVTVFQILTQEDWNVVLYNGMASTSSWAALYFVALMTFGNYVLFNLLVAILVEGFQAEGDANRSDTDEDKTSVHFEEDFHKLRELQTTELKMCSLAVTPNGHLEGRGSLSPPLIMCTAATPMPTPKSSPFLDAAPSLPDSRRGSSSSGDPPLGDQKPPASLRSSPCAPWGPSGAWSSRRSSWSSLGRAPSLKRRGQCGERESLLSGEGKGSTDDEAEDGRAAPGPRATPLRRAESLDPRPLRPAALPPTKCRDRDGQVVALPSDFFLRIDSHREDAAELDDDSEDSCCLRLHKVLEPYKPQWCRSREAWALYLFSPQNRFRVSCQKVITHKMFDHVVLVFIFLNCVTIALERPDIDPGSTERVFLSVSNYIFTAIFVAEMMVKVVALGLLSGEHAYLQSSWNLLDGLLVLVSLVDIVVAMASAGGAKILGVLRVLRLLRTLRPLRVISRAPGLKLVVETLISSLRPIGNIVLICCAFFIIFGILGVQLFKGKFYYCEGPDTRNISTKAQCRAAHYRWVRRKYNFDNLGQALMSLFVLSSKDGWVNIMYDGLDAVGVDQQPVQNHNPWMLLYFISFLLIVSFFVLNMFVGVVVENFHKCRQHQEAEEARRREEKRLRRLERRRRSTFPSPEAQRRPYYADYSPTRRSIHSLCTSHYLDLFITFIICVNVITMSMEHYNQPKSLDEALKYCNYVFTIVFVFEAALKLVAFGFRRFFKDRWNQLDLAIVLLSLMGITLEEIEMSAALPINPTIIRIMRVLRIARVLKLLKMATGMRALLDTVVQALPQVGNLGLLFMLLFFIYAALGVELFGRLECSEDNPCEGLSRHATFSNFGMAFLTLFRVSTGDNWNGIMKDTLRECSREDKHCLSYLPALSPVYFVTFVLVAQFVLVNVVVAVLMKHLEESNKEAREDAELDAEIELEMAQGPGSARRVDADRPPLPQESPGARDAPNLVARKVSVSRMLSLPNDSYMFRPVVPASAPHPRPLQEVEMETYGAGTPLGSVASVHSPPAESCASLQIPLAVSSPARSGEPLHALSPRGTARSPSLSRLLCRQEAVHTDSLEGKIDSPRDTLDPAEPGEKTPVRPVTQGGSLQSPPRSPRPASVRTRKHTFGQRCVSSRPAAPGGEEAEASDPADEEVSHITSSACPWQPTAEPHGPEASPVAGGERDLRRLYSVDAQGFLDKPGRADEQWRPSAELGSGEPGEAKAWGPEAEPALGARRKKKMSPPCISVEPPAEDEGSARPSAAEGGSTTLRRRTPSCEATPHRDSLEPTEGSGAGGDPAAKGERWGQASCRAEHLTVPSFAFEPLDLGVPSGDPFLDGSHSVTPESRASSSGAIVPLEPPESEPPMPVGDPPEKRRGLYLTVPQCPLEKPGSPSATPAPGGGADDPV

The assay addresses T1, Human Cav3.2 Channels (Homo sapiens, UniProt O95180).
T1 construct: expressed in transfected cells
The experiment in a line: Electrophysiologic (whole-cell patch-clamp) assessment of calcium channel activity in HEK293 cells stably expressing hCav3.2. The class given is cell-based. The following applies: −77 mV, geometric mean, read-out: Human Cav3.2 −77 mV IC50 (μM) GeoMean. How it is done:
(i) In Vitro Methods—Electrophysiologic Assessment of Calcium Channel Activity:
Patch-clamp recordings were performed using HEK293 cells stably expressing hCav3.2. Cells were plated in T175 flasks and grown at 37° C. and under 5% CO2 to approximately 50% confluency. On the day of the experiment, cells were harvested with Detachin™ cell detachment solution (Genlantis, San Diego, Calif.) and maintained in serum-free culture medium supplemented with 25 mM HEPES up to several hours prior to experiment. Whole-cell patch-clamp recordings were obtained using extracellular saline consisting of (mM): 87.5 CsCl, 40 TEA-Cl, 5 CaCl2, 1 MgCl2, 10 HEPES, 10 glucose. The pH was adjusted to 7.2 with CsOH and the osmolarity was adjusted to approximately 310 mOsm with sucrose. Intracellular solution consisted of (mM): 112 CsCl, 27 CsF, 2 NaCl, 8.2 EGTA, 10 HEPES. Prior to an experiment 4 mM Mg2ATP was added and the pH was adjusted to 7.2 with CsOH with an osmolarity of approximately 290 mOsm. A two-pulse voltage protocol was utilized to assess compound inhibition. First, cells were held with an 8 s pre-pulse at −100 mV prior to a 160 ms test pulse to −30 mV. This was followed by an 8 s pre-pulse at approximately −75 mV prior to a […]. Increasing concentrations of antagonist were applied to individual cells in a multi-addition format with 5 minutes in each test concentration. For each cell, responses were normalized to dimethyl sulfoxide vehicle control to generate concentration-response curves.
For `O=C(c1cccc(S(=O)(=O)Nc2ccc(C(F)(F)F)cc2)c1)N1CCN2CCC[C@@H]2C1` [Example 1, 3-[(8aR)-hexahydropyrrolo[1,2-a]pyrazin-2(1H)-ylcarbonyl]-N-[4-(trifluoromethyl)phenyl]benzenesulfonamide], the IC50 was > 10 µM.

`O=C(c1cccc(S(=O)(=O)N2CCN(c3ccc(F)cc3)CC2)c1)N1CCN2CCC[C@H]2C1` [Example 35, (8aS)-2-(3-{[4-(4-fluorophenyl)piperazin-1-yl]sulfonyl}benzoyl)octahydropyrrolo[1,2-a]pyrazine]: the IC50 came to 4.8 µM.

As for `O=C(c1cccc(S(=O)(=O)N[C@@H]2C[C@H]2c2ccccc2)c1)N1CCN2CCC[C@H]2C1` [Example 61, 3-[(8aS)-hexahydropyrrolo[1,2-a]pyrazin-2(1H)-ylcarbonyl]-N-[(1R,2S)-2-phenylcyclopropyl]benzenesulfonamide], the 50% inhibitory concentration (IC50) was > 10 µM.

For `O=C(c1cccc(S(=O)(=O)Nc2ccccc2Cl)c1)N1CCN2CCC[C@@H]2C1` [Example 9, N-(2-chlorophenyl)-3-[(8aR)-hexahydropyrrolo[1,2-a]pyrazin-2(1H)-ylcarbonyl]benzenesulfonamide], the IC50 stood at 7.3 µM.

In the case of `O=C(c1cccc(S(=O)(=O)N2CCN(C(c3ccc(F)cc3)c3ccc(F)cc3)CC2)c1)N1CCN2CCC[C@H]2C1` [Example 23, (8aS)-2-[3-({4-[bis(4-fluorophenyl)methyl]piperazin-1-yl}sulfonyl)benzoyl]octahydropyrrolo[1,2-a]pyrazine], the IC50 came out at 2.5 µM.

With `O=C(c1cccc(S(=O)(=O)Nc2ccc(C(F)(F)F)cc2)c1)N1CCC(N2CCCCC2)CC1` [Example 49, 3-(1,4′-bipiperidin-1′-ylcarbonyl)-N-[4-(trifluoromethyl)phenyl]benzenesulfonamide], the IC50 is 1.3 µM.

For `O=C(c1cccc(S(=O)(=O)Nc2cccc(F)c2)c1)N1CCN2CCC[C@@H]2C1` [Example 7, N-(3-fluorophenyl)-3-[(8aR)-hexahydropyrrolo[1,2-a]pyrazin-2(1H)-ylcarbonyl]benzenesulfonamide], the IC50 is 6.5 µM.

Take `O=C(c1cccc(S(=O)(=O)N2CCN3CCC[C@H]3C2)c1)N1CCN(C(c2ccccc2)c2ccccc2)CC1` [Example 54, (8aS)-2-({3-[(4-benzhydrylpiperazin-1-yl)carbonyl]phenyl}sulfonyl)octahydropyrrolo[1,2-a]pyrazine]: the IC50 was determined as 1.2 µM.

On to `O=C(c1cccc(S(=O)(=O)NCC(c2ccccc2)c2ccccc2)c1)N1CCN2CCC[C@H]2C1` [Example 31, N-(2,2-diphenylethyl)-3-[(8aS)-hexahydropyrrolo[1,2-a]pyrazin-2(1H)-ylcarbonyl]benzenesulfonamide], for which the IC50 came to 3.3 µM.

`O=C(c1cccc(S(=O)(=O)Nc2ccccc2F)c1)N1CCN2CCC[C@H]2C1` [Example 17, N-(2-fluorophenyl)-3-[(8aS)-hexahydropyrrolo[1,2-a]pyrazin-2(1H)-ylcarbonyl]benzenesulfonamide]: the IC50 was > 10 µM.

On to `O=C(c1cccc(S(=O)(=O)Nc2cccc(F)c2F)c1)N1CCN2CCC[C@H]2C1` [Example 11, N-(2,3-difluorophenyl)-3-[(8aS)-hexahydropyrrolo[1,2-a]pyrazin-2(1H)-ylcarbonyl]benzenesulfonamide], for which the IC50 came to 6.6 µM.

As for `O=C(NCCC(c1ccccc1)c1ccccc1)c1cccc(S(=O)(=O)N2CCN3CCC[C@H]3C2)c1` [Example 55, N-(3,3-diphenylpropyl)-3-[(8aS)-hexahydropyrrolo[1,2-a]pyrazin-2(1H)-ylsulfonyl]benzamide], the IC50 worked out at 1.8 µM.

Take `CC(C)N(c1cccc(C(=O)N2CCN3CCC[C@@H]3C2)c1)S(=O)(=O)c1cccc(C(F)(F)F)c1` [Example 77, N-{3-[(8aR)-hexahydropyrrolo[1,2-a]pyrazin-2(1H)-ylcarbonyl]phenyl}-N-isopropyl-3-(trifluoromethyl)benzenesulfonamide]: the IC50 was > 10 µM.

Take `O=C(c1cccc(S(=O)(=O)Nc2cccc(F)c2)c1)N1CCC(N2CCCC2)CC1` [Example 44, N-(3-fluorophenyl)-3-[(4-pyrrolidin-1-ylpiperidin-1-yl)carbonyl]benzenesulfonamide]: the IC50 was 4.9 µM.

Take `O=C(c1cccc(S(=O)(=O)N2CCN3CCC[C@H]3C2)c1)N1CCN(C(c2ccc(F)cc2)c2ccc(F)cc2)CC1` [Example 51, (8aS)-2-{[3-({4-[bis(4-fluorophenyl)methyl]piperazin-1-yl}carbonyl)phenyl]sulfonyl}octahydropyrrolo[1,2-a]pyrazine]: the IC50 is 0.9 µM.

Consider `O=C(c1cccc(S(=O)(=O)Nc2cccc(F)c2F)c1)N1CCN2CCC[C@@H]2C1` [Example 14, N-(2,3-difluorophenyl)-3-[(8aR)-hexahydropyrrolo[1,2-a]pyrazin-2(1H)-ylcarbonyl]benzenesulfonamide], for which the IC50 was determined as 3.7 µM.

As to `O=C(c1cccc(S(=O)(=O)Nc2cccc(Cl)c2)c1)N1CCN2CCC[C@@H]2C1` [Example 25, N-(3-chlorophenyl)-3-[(8aR)-hexahydropyrrolo[1,2-a]pyrazin-2(1H)-ylcarbonyl]benzenesulfonamide], the IC50 stood at 8.9 µM.

Turning to `CN(c1cccc(C(=O)N2CCN3CCC[C@@H]3C2)c1)S(=O)(=O)c1cccc(C(F)(F)F)c1` [Example 69, N-{3-[(8aR)-hexahydropyrrolo[1,2-a]pyrazin-2(1H)-ylcarbonyl]phenyl}-N-methyl-3-(trifluoromethyl)benzenesulfonamide], the IC50 is > 10 µM.

With `O=C(c1cccc(S(=O)(=O)NCCC(c2ccccc2)c2ccccc2)c1)N1CCN2CCC[C@H]2C1` [Example 30, N-(3,3-diphenylpropyl)-3-[(8aS)-hexahydropyrrolo[1,2-a]pyrazin-2(1H)-ylcarbonyl]benzenesulfonamide], the IC50 turned out to be 1.8 µM.

Turning to `O=C(c1cccc(S(=O)(=O)Nc2ccc(F)cc2F)c1)N1CCN2CCC[C@@H]2C1` [Example 18, N-(2,4-difluorophenyl)-3-[(8aR)-hexahydropyrrolo[1,2-a]pyrazin-2(1H)-ylcarbonyl]benzenesulfonamide], the IC50 came out at 9.3 µM.

In the case of `O=C(c1ccc(F)c(NS(=O)(=O)c2cccc(C(F)(F)F)c2)c1)N1CCN2CCC[C@@H]2C1` [Example 65, N-{2-fluoro-5-[(8aR)-hexahydropyrrolo[1,2-a]pyrazin-2(1H)-ylcarbonyl]phenyl}-3-(trifluoromethyl)benzenesulfonamide], the IC50 stood at 1.84 µM.

Take `O=C(NC(c1ccccc1)c1ccccc1)c1cc(S(=O)(=O)N2CCN3CCC[C@H]3C2)c(F)cc1Cl` [Example 82, N-benzhydryl-2-chloro-4-fluoro-5-[(8aS)-hexahydropyrrolo[1,2-a]pyrazin-2(1H)-ylsulfonyl]benzamide]: the IC50 is 2.6 µM.

Take `O=C(N[C@H](CO)c1ccccc1)c1cccc(S(=O)(=O)N2CCN3CCC[C@@H]3C2)c1` [Example 81, 3-[(8aR)-hexahydropyrrolo[1,2-a]pyrazin-2(1H)-ylsulfonyl]-N-[(1S)-2-hydroxy-1-phenylethyl]benzamide]: the IC50 was > 10 µM.

Regarding `O=C(c1cc(S(=O)(=O)N2CCc3ccccc32)c(F)cc1Cl)N1CCN2CCC[C@@H]2C1` [Example 63, (8aR)-2-[2-chloro-5-(2,3-dihydro-1H-indol-1-ylsulfonyl)-4-fluorobenzoyl]octahydropyrrolo[1,2-a]pyrazine], the IC50 was > 10 µM.

For the compound `O=C(c1cc(S(=O)(=O)NCCC(c2ccccc2)c2ccccc2)c(F)cc1Cl)N1CCN2CCC[C@H]2C1` [Example 59, 4-chloro-N-(3,3-diphenylpropyl)-2-fluoro-5-[(8aS)-hexahydropyrrolo[1,2-a]pyrazin-2(1H)-ylcarbonyl]benzenesulfonamide], the IC50 amounted to 9 µM.

`O=C(c1cccc(S(=O)(=O)Nc2cccc(C(F)(F)F)c2)c1)N1CCC(N2CCCC2)CC1` [Example 43, 3-[(4-pyrrolidin-1-ylpiperidin-1-yl)carbonyl]-N-[3-(trifluoromethyl)phenyl]benzenesulfonamide]: the IC50 came to 4.9 µM.

As for `O=C(c1cccc(S(=O)(=O)Nc2ccc(C(F)(F)F)cc2)c1)N1CCC(N2CCCC2)CC1` [Example 42, 3-[(4-pyrrolidin-1-ylpiperidin-1-yl)carbonyl]-N-[4-(trifluoromethyl)phenyl]benzenesulfonamide], the IC50 stood at 5.8 µM.

As for `O=C(c1cccc(S(=O)(=O)Nc2ccccc2C(F)(F)F)c1)N1CCN2CCC[C@@H]2C1` [Example 27, 3-[(8aR)-hexahydropyrrolo[1,2-a]pyrazin-2(1H)-ylcarbonyl]-N-[2-(trifluoromethyl)phenyl]benzenesulfonamide], the IC50 is > 10 µM.

For `O=C(N[C@@H]1C[C@H]1c1ccccc1)c1cccc(S(=O)(=O)N2CCN3CCC[C@H]3C2)c1` [Example 60, 3-[(8aS)-hexahydropyrrolo[1,2-a]pyrazin-2(1H)-ylsulfonyl]-N-[(1R,2S)-2-phenylcyclopropyl]benzamide], the IC50 amounted to 5 µM.

For `O=C(Nc1cc(C(=O)N2CCN3CCC[C@@H]3C2)ccc1F)c1cc(Cl)cc(Cl)c1` [Example 73, 3,5-dichloro-N-{2-fluoro-5-[(8aR)-hexahydropyrrolo[1,2-a]pyrazin-2(1H)-ylcarbonyl]phenyl}benzamide], the IC50 stood at 1.8 µM.
